Reference: US9889180B2, “Method of treating cancer” (Agency for Science, Technology and Research, priority 2012, dated 2018)

Columns and labels:
DU145 cells [1] = assay: FACS sub-G1 DNA analysis (apoptosis) in DU145 cells; assay type: cell-based, human; conditions: for apoptosis (sub-G1) with other epigenetic compounds / apoptotic effect (sub-G1): in combination with IFN-γ; for apoptosis (sub-G1) with other epigenetic compounds: compared with DZNep; for apoptotic effect (sub-G1): treated for either 3 days or 10 days
Method: For the assessment of cell death, cells were harvested in 70% ethanol. Fixed cells were stained with Propidium Iodide (P.I) (50 μg/mL). The stained cells were analyzed for DNA content by FACS in a FACSCalibur (Becton Dickinson Instrument). % of cell death was defined as the sub-G1 population quantified using the CellQuest software (Becton Dickinson). The percentage of dead cells or sub-G1 cells was calculated by comparing the results of each experiment to the results from DMSO-treated cells. Each assay was repeated a minimum of three times, with results reported as means+s.e.m.

LNCaP cells = assay: Cell proliferation assay (CellTiter-Glo) in LNCaP cells; assay type: cell-based, human; conditions: siRNA knockdown combined with IFN-γ treatment
Method: (§1) The optimal cell seeding was determined empirically for all cell lines by examining the growth of a wide range of seeding densities in a 96-well format to identify conditions that permitted proliferation for 6 days. Cells were then plated at the optimal seeding density 24 h before siRNA or drug treatment in triplicate. Plates were incubated for 6 days at 37° C. in 5% CO2. Cells were then lysed with CellTiter-Glo (CTG) (Promega) and chemiluminescent signal was detected with a microplate reader (TECAN). In addition, an untreated plate of cells was harvested at the time of drug or siRNA addition (T0) to quantify the starting number of cells. CTG values obtained after the 6 day treatment were expressed as percentages of the T0 value and plotted against time of treatment. Cells received 1-5 μM of DZNep, 25 ng/mL of IFN-γ and 0.1-2.5 μM of GSK343 unless stated otherwise for 72-96 h.

DU145 cells [2] = assay: Cell proliferation assay (CellTiter-Glo) in DU145 cells; assay type: cell-based, human; conditions: siRNA knockdown combined with IFN-γ treatment
Method: as §1

EZH2/PRC2 and H3K27me3 = target: T1, EZH2/PRC2 and H3K27me3 (Homo sapiens, UniProt Q15910); assay: Western blot of PRC2 proteins and H3K27me3 in DU145 cells; assay type: cell-based
T1 construct: endogenous in cells; host or cells: DU145 (named by the earlier reading of the assay)
Method: Western Blotting was performed as described previously. Briefly, Cells were scraped, collected, and lysed in RIPA buffer. To release histones from chromatin, cell lysates were further sonicated for 15 sec using a XL2000 Microson Ultrasonic Processor (Misonix). Equal amounts of protein (30 μg) were separated on SDS-polyacrylamide gels and transferred to PVDF membranes. The blots were probed with antibodies against EED (07-368), SUZ12 (07-379), trimethylated H3-K27 (07-449), Acetyl-Histone H3 (06-599), which were purchased from Upstate Biotechnology. IFNGR1 (GIR-94) and anti-IFI16 (1G7) were purchased from Santa Cruz. EZH2 phospho S21 (00388) was purchased from Bethyl Laboratories. EZH2 (AC22), P110α PI3K, p-AKT (T308), p-AKT (S473), pSTAT1Y701, total STAT1, Histone H3 (3H1), Beclin-1 and cleaved PARP were purchased from Cell Signaling. Myc and Actin were purchased from Roche Applied Science and Sigma-Aldrich, respectively.

[3] = tested on: IFNGR1 expression and IFN-γ-STAT1 signaling; assay: qRT-PCR and western blot of IFNGR1 expression and IFN-γ signaling in DU145 cells; assay type: cell-based, human
Method: All cells were maintained at 37° C. with 5% CO2. Cells were grown until they were 80% confluent before they are treated the respective drugs. For drug treatment, DZNep and GSK126 were purchased from Pharmaron Inc. (Beijing, China), GSK343 was kindly provided by Chemical Probes of University of Toronto, 5′Aza, TSA and human recombinant IFN-γ was purchased from Sigma. For rescue experiment using IFNGR1 blocking antibody, the neutralizing antibody that specifically targets IFNGR1 (anti-CD119, GIR-208, BD Pharmingen) was added to the medium 4 hour prior to the addition of DZNep or/and IFN-γ. Total RNA was isolated by using Trizol (Invitrogen) and purified with the RNeasy Mini Kit (Qiagen). The microarray hybridization was performed using the Illumina Gene Expression Sentrix BeadChip HumanRef-8_V3, and data analysis was performed by GeneSpring software from Agilent Technologies as described previously. The analyzed gene sets by GeneSpring were next subjected to Ingenuity Pathway Analysis (IPA) for gene ontology (GO) analysis. Reverse transcription and quantitative PCR assays were performed using High Capacity cDNA Archive kit and KAPA SyBr Fast qPCR kit (KAPA biosystems). For quantification of mRNA levels, 18S level was used as an internal control. All reactions were analyzed in an Applied Biosystems PRISM 7500 Fast Real-Time PCR system in 96-well plate format. Western Blotting was performed as described previously. Briefly, Cells were scraped, collected, and lysed in RIPA buffer. To release histones from chromatin, cell lysates were further sonicated for 15 sec using a XL2000 Microson Ultrasonic Processor (Misonix). Equal amounts of protein (30 μg) were separated on SDS-polyacrylamide gels and transferred to PVDF membranes. The blots were probed with antibodies against EED (07-368), SUZ12 (07-379), trimethylated H3-K27 (07-449), Acetyl-Histone H3 (06-599), which were purchased from Upstate Biotechnology. IFNGR1 (GIR-94) and anti-IFI16 (1G7) were purchased from Santa Cruz. EZH2 phospho S21 (00388) was purchased from Bethyl Laboratories. EZH2 (AC22), P110α PI3K, p-AKT (T308), p-AKT (S473), pSTAT1Y701, total STAT1, Histone H3 (3H1), Beclin-1 and cleaved PARP were purchased from Cell Signaling. Myc and Actin were purchased from Roche Applied Science and Sigma-Aldrich, respectively.

solid tumor cells = conditions: very recent report; cited from earlier work
IFNGR1 promoter = assay: ChIP analysis of EZH2 and H3K27me3 enrichments at IFNGR1 in DU145 cells; assay type: cell-based, human; conditions: GSK126 (5 μM), 3 days, compared with DZNep
Method: ChIP assays were performed as described previously. […] The immunoprecipitated DNA was quantified by quantitative real-time PCR using KAPA SyBr Fast qPCR kit (KAPA biosystems) with the specific ChIP primers as listed in the Table 4. Quantification of binding to the promoter was defined as the percentage of the whole cell lysate input DNA. The fold enrichment was derived by normalizing the specific antibody enriched against the IgG-enriched chromatin. CNR1 serves a positive control and Actin is a negative control. Significance of target genes was assessed relative to Actin level.

DU145 xenograft tumor = DU145 xenograft tumor growth in male athymic nude mice; assay type: in vivo; conditions: IFN-γ 1×10^7 IU/kg i.p. daily, DZNep 1 mg/kg s.c. every alternating day, 38 days
Method: For in vivo evaluation of DZNep and IFN-γ treatment, the experiments were conducted in compliance with animal protocol approved by the ASTAR-Biopolis Institutional Animal Care and Use Committee (IACUC) of Singapore. DU145 cells were subcutaneously injected into 6-8 week male nude mice at 5×10^6 cells, followed by treatment with vehicle, IFN-γ (1×10^7 IU/kg) alone, DZNep (1 mg/kg) alone or combined DZNep (1 mg/kg) with IFN-γ (1×10^7IU/kg). IFN-γ was administered by intraperitoneal injection daily and DZNep by subcutaneous injection on every alternating day over a duration of 38 days after average tumor size reached around 150 mm^3. Tumors were measured by vernier calliper at least twice per week and tumors volume was calculated with formula: V=W*W*L/2. Each xenograft treatment arm comprised of 5-8 mice. Differences among groups and treatments were determined by ANOVA followed by t tests. (***p<0.001, n.s=not significant) Error bars represent means±s.e.m

T1 sequence (Q15910 whole entry): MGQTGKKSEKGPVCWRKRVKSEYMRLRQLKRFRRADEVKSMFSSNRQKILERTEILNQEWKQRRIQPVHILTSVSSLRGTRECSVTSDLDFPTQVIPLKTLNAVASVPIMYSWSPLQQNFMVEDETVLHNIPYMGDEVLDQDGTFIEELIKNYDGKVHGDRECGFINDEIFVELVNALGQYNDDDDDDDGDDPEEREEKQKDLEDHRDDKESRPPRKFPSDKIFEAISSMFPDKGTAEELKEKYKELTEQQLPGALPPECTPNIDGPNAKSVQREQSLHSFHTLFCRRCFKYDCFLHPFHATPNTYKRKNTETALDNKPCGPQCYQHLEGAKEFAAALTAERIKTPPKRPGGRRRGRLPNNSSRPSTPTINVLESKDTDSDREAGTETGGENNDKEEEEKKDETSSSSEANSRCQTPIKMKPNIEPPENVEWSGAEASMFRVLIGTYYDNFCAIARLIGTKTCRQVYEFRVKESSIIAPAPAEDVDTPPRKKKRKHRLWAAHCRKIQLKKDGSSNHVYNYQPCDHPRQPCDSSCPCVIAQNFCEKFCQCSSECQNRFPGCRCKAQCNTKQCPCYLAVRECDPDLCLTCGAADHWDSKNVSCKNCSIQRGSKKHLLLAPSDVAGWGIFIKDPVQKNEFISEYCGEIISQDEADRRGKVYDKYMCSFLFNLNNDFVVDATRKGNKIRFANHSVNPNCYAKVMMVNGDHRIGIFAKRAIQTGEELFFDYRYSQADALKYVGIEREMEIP
T1 sequence (O75530 whole entry partner): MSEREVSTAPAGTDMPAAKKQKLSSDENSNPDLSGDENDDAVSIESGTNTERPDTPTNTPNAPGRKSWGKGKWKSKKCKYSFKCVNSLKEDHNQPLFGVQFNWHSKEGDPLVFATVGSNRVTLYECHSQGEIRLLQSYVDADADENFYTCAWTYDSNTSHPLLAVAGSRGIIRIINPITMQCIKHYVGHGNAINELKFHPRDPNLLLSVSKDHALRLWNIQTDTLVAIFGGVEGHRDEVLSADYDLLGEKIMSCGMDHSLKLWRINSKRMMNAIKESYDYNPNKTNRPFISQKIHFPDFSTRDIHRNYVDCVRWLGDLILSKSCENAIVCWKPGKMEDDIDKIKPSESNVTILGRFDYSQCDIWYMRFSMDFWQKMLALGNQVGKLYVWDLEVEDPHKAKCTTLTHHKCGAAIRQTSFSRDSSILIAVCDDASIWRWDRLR
T1 sequence (Q15022 whole entry partner): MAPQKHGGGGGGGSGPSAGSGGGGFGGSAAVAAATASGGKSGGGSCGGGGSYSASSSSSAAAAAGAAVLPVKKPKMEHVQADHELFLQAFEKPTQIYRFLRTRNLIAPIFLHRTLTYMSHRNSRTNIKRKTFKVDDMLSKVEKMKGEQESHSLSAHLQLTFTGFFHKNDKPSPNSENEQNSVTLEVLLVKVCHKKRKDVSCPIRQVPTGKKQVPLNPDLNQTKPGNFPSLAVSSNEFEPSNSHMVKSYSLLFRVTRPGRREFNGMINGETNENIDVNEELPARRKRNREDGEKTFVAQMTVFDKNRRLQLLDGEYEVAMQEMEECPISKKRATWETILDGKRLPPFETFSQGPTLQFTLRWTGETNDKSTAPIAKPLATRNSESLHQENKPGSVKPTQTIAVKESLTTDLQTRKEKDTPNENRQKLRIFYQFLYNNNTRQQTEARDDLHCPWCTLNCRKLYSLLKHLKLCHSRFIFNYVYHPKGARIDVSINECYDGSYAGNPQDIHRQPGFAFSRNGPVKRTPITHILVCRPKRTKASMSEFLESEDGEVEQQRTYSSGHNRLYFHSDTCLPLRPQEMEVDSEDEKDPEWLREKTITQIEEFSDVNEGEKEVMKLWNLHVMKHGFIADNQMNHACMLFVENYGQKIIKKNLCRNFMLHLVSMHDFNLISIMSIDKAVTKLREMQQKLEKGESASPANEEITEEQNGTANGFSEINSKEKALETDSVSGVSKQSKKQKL

## O=C(CCCCCCC(=O)Nc1ccccc1)NO [SAHA]
DU145 cells [1]
  apoptosis (sub-G1) with other epigenetic compounds: did not give rise to such a response

## MYC knockdown: MYC siRNA: 5′-UCCUGAGACAGAUCAGCAACAACCG-3′ (SEQ ID NO:2) (other strand not given here)
DU145 cells [1]; siRNA knockdown in combination with IFN-γ
  apoptosis (sub-G1) after knockdown: apoptosis induction
LNCaP cells
  cell growth after knockdown: no such an effect was seen
DU145 cells [2]
  cell growth after knockdown: remarkable synergy in cell growth regression
EZH2/PRC2 and H3K27me3
  EZH2 expression after knockdown: decreased EZH2 expression

## CCCc1cc(C)[nH]c(=O)c1CNC(=O)c1cc(-c2ccnc(N3CCN(C)CC3)c2)cc2c1cnn2C(C)C [GSK343, N-[(6-methyl-2-oxo-4-propyl-1,2-dihydropyridin-3-yl)methyl]-6-[2-(4-methylpiperazin-1-yl)pyridin-4-yl]-1-(propan-2-yl)-1H-indazole-4-carboxamide]
DU145 cells [1]
  apoptotic effect (sub-G1): failed to see an apoptotic effect
[3]; GSK343 up to 2.5 μM for 3 days
  IFNGR1 expression: did not show an induction of IFNGR1
EZH2/PRC2 and H3K27me3; GSK343 at as low as 0.1 μM, 3 days
  depletion of H3K27me3: efficient depletion of H3K27me3

## CC[C@H](C)n1cc(C)c2c(C(=O)NCc3c(C)cc(C)[nH]c3=O)cc(-c3ccc(N4CCNCC4)nc3)cc21 [GSK126, N-[(4,6-dimethyl-2-oxo-1,2-dihydro-3-pyridinyl)methyl]-3-methyl-1-((1S)-1-methylpropyl)-6-[6-(1-piperazinyl)-3-pyridinyl]-1H-indole-4-carboxamide]
DU145 cells [1]
  apoptotic effect (sub-G1): failed to see an apoptotic effect
Solid tumor cells
  ability to induce the loss of cell viability: unable to do so
[3]; GSK126 up to 10 μM for 10 days
  IFNGR1 expression: modest induction of IFNGR1
IFNGR1 promoter
  H3K27me3 enrichment at the IFNGR1 gene promoter: more efficiently depleted H3K27me3

## CC(/C=C/C(=O)NO)=C\[C@@H](C)C(=O)c1ccc(N(C)C)cc1 [TSA]
DU145 cells [1]
  apoptosis (sub-G1) with other epigenetic compounds: did not give rise to such a response

B1: IFN-γ: human recombinant IFN-γ purchased from Sigma; enhancer of interferon-gamma receptor activity (protein)
chain: QDPYVKEAENLKKYFNAGHSDVADNGTLFLGILKNWKEESDRKIMQSQIVSFYFKLFKNFKDDQSIQKSVETIKEDMNVKFFNSNKKKRDDFEKLTNYSVTDLNVQRKAIHELIQVMAELSPAAKTGKRKRSQMLFRGRRASQ
DU145 xenograft tumor
  xenograft tumor growth: slowed down the tumor growth
